Results: ChEMBL document CHEMBL1158913, “Peroxy Aliphatic Esters from the Sponge Plakortis lita” (1990)

System: P388
Assay: Cytotoxicity against mouse P388 cells
Assay type: functional
Settings: read-out: ED50 (the source's name)

SMILES: CCCCCCCCCCCCCCCC[C@@]1(OC)C=C[C@@H](CC(=O)OC)OO1 [CHONDRILLIN]
- EC50: > 10 µg/mL

SMILES: C/C=C/C=C/CCCCCCCCCCC[C@]1(OC)C=C[C@H](CC(=O)OC)OO1
- EC50: > 10 µg/mL
